In one test the test system is P388 leukemia. The test can be described thus: NCI tumour cell line growth inhibition, 48 h.
The next test relates to SN12K1 renal. The test can be described thus: NCI tumour cell line growth inhibition, 48 h.

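Protocol summary: plate cells (96-well), add compound at 5 concentrations, incubate 48 h, interpolate endpoints linearly. At the TGI there is no net growth.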

As to `NCCCNCCCCNC(=O)C(O)NC(=O)CCCCCCN=C(N)N` (configuration not stated), the TGI in the test with P388 leukemia came out at 511 µM; in the test with SN12K1 renal, 750 µM.

Values taken from PubChem BioAssay (NCI).
